This is an account of results in patent US12643886B2 (Ontario Institute for Cancer Research (OICR), priority 2021, dated 2026).

Format in all cases: biochemical
Experiment [1] addresses T1, Aurora A (Homo sapiens, UniProt O14965).
T1 sequence (O14965 1-403): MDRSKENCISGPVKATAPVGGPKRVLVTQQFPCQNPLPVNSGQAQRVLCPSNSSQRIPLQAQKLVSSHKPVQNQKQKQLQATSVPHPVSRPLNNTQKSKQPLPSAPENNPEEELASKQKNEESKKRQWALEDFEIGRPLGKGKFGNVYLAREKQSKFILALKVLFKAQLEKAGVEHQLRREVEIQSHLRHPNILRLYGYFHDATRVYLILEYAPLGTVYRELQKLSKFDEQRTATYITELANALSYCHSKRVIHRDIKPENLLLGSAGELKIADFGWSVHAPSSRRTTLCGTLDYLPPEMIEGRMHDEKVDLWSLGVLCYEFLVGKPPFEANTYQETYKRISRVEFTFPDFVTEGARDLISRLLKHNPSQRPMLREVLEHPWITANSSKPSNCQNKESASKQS
Put plainly: Counter-screen against Aurora A. Particulars: read-out: AUR-A (IC50). The method, then: (§1) To identify small molecule NUAK inhibitors, a biochemical NUAK2 enzymatic assay were outsourced to Eurofins. This assay was done radiometrically using full-length, recombinant enzyme. NUAK2 (h) was incubated with 8 mM MOPS pH 7.0, 0.2 mM EDTA, 300 μM […], 10 mM magnesium acetate and […] (specific activity and concentration as required). The reaction was initiated by the addition of the Mg/ATP mix. After incubation for 40 minutes at room temperature, the reaction was stopped by the addition of phosphoric acid to a concentration of 0.5%. 10 μL of the reaction was then spotted onto a P30 filtermat and washed four times for 4 minutes in 0.425% phosphoric acid and once in methanol prior to drying and scintillation counting. Compounds were routinely counter-screened against Aurora A and NUAK1. The results are shown in Table 1 where IC50's are reported in the following ranges: A: 0.1-10 nM; B: 11-100 nM; C: 101-1000 nM; D: >1000 nM for the compounds of Formula (I)

For experiment [2], the target named is T2, NUAK2 (h) (Homo sapiens, UniProt Q9H093).
T2 construct: This assay was done radiometrically using full-length, recombinant enzyme; purchased Eurofins
T2 sequence (Q9H093 1-628): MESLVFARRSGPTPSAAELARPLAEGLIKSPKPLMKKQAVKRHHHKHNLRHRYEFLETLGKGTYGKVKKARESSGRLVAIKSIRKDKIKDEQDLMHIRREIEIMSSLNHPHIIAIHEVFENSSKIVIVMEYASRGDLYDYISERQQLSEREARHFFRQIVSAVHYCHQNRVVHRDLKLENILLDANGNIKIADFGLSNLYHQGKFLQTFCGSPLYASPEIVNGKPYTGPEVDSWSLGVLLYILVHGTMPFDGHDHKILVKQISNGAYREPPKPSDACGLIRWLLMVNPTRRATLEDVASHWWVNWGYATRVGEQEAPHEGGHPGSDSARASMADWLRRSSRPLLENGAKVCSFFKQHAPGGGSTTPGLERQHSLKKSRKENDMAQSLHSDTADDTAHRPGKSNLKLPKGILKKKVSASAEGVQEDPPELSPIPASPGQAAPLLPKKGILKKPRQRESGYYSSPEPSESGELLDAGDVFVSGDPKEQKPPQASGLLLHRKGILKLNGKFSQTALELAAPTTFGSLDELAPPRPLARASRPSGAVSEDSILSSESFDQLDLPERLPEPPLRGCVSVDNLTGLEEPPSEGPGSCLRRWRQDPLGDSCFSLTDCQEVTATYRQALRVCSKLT
Put plainly: NUAK2 enzymatic assay (radiometric, Eurofins). To be noted: full-length recombinant enzyme. The method, then: as §1

Experiment [3] deals with T3, NUAK1 (Homo sapiens, UniProt O60285).
T3 sequence (O60285 1-661): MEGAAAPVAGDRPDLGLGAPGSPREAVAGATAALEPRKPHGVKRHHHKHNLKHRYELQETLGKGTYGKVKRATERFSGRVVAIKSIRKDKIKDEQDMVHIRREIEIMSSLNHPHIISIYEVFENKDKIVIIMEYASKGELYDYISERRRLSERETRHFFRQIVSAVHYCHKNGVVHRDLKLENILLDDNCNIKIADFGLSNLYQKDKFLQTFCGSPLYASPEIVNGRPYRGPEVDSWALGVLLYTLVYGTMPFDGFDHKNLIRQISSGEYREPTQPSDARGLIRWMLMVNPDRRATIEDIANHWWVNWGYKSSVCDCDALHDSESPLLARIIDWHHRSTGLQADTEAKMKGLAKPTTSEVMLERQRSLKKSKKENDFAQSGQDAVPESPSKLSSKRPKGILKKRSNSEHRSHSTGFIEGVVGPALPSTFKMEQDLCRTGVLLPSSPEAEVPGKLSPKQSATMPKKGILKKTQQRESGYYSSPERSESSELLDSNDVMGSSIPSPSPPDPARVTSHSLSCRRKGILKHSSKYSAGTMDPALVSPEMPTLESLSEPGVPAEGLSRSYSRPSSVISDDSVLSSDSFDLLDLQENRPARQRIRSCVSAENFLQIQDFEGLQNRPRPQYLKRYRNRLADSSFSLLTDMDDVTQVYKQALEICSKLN
Briefly: Counter-screen against NUAK1. The method, then:
as §1
(Counterscreens check selectivity or assay interference.)

Structures are written as SMILES.

A word on the IC50: it is the concentration that gives 50% inhibition. In the case of `C[C@H]1CN(c2ccc(Nc3ncc(C(F)(F)F)c(Nc4cccc5c4C(=O)NC5)n3)c(OC(F)F)c2)CCN1` [Compound I-50, (S)-7-((2-((2-(difluoromethoxy)-4-(3-methylpiperazin-1-yl)phenyl)amino)-5-(trifluoromethyl)pyrimidin-4-yl)amino)isoindolin-1-one], the results for the concentration for half-maximal inhibition (IC50) in experiment [1], in experiment [2] and in experiment [3] were over 1000 nM, 0.1 to 10 nM and 11 to 100 nM, respectively.
With `O=C1NCc2cccc(Nc3nc(Nc4ccc(N5CCCNCC5)cc4OC(F)F)ncc3Cl)c21` [Compound I-74, 7-((2-((4-(1,4-diazepan-1-yl)-2-(difluoromethoxy)phenyl)amino)-5-chloropyrimidin-4-yl)amino)isoindolin-1-one], the figures for the IC50 in experiment [1], in experiment [2] and in experiment [3] were 101 to 1000 nM, 0.1 to 10 nM and 11 to 100 nM, respectively.
Consider `CN1CCN(C2CCN(c3ccc(Nc4ncc(C(F)(F)F)c(Nc5cccc6c5C(=O)NC6)n4)c(OC(F)F)c3)CC2)CC1` [Compound I-20, 7-((2-((2-(difluoromethoxy)-4-(4-(4-methylpiperazin-1-yl)piperidin-1-yl)phenyl)amino)-5-(trifluoromethyl)pyrimidin-4-yl)amino)isoindolin-1-one], for which the results for the 50% inhibitory concentration (IC50) in experiment [1], in experiment [2] and in experiment [3] were 101 to 1000 nM, 0.1 to 10 nM and 11 to 100 nM, respectively.
The like results for `CCN1CCN(c2ccc(Nc3nccc(Nc4cccc5c4C(=O)NC5)n3)cc2F)CC1` [Compound I-2, 7-((2-((4-(4-ethylpiperazin-1-yl)-3-fluorophenyl)amino)pyrimidin-4-yl)amino)isoindolin-1-one] were, in that order, 0.1 to 10 nM, 11 to 100 nM and 0.1 to 10 nM.
The like results for `O=C1NCc2cccc(Nc3nc(Nc4ccc(N5CCNCC5)cc4OC(F)F)ncc3F)c21` [Compound I-42, 7-((2-((2-(difluoromethoxy)-4-(piperazin-1-yl)phenyl)amino)-5-fluoropyrimidin-4-yl)amino)isoindolin-1-one] were, in that order, 101 to 1000 nM, 11 to 100 nM and 101 to 1000 nM.
The like results for `CN1CCN(C2CCN(c3ccc(Nc4ncc(Cl)c(Nc5cccc6c5C(=O)NC6)n4)c(OC(F)F)c3)CC2)CC1` [Compound I-9, 7-((5-chloro-2-((2-(difluoromethoxy)-4-(4-(4-methylpiperazin-1-yl)piperidin-1-yl)phenyl)amino)pyrimidin-4-yl)amino)isoindolin-1-one] were, in that order, 101 to 1000 nM, 0.1 to 10 nM and 11 to 100 nM.
As for `Cc1cnc(Nc2ccc(N3CCN(C)CC3)cc2OC(F)F)nc1Nc1cccc2c1C(=O)NC2` [Compound I-83, 7-((2-((2-(difluoromethoxy)-4-(4-methylpiperazin-1-yl)phenyl)amino)-5-methylpyrimidin-4-yl)amino)isoindolin-1-one], the IC50 in experiment [1] is over 1000 nM; in experiment [2], 0.1 to 10 nM; in experiment [3], 11 to 100 nM.
The like results for `COc1cc(N2CCN(C)CC2)ccc1Nc1ncc(Cl)c(Nc2cccc3c2C(=O)NC3)n1` [Compound I-5, 7-((5-chloro-2-((2-methoxy-4-(4-methylpiperazin-1-yl)phenyl)amino)pyrimidin-4-yl)amino)isoindolin-1-one] were, in that order, 11 to 100 nM, 0.1 to 10 nM and 11 to 100 nM.
Taken in the same sequence, the figures for `O=C1NCc2cccc(Nc3nc(Nc4ccc(N5C[C@H]6CNC[C@H]6C5)cc4OC(F)F)ncc3Cl)c21` [Compound I-76, 7-((5-chloro-2-((2-(difluoromethoxy)-4-((3aR,6aS)-hexahydropyrrolo[3,4-c]pyrrol-2(1H)-yl)phenyl)amino)pyrimidin-4-yl)amino)isoindolin-1-one] were 101 to 1000 nM, 0.1 to 10 nM and 11 to 100 nM.
In the case of `CN1CCCN(C2CCN(c3ccc(Nc4ncc(C(F)(F)F)c(Nc5cccc6c5C(=O)NC6)n4)c(OC(F)F)c3)CC2)CC1` [Compound I-69, 7-((2-((2-(difluoromethoxy)-4-(4-(4-methyl-1,4-diazepan-1-yl)piperidin-1-yl)phenyl)amino)-5-(trifluoromethyl)pyrimidin-4-yl)amino)isoindolin-1-one], the IC50 in experiment [1] fell in the range of 101 to 1000 nM; in experiment [2], 0.1 to 10 nM; in experiment [3] it was 11 to 100 nM.
For the molecule `COc1c(Nc2ncc(C(F)(F)F)c(Nc3cccc4c3C(=O)NC4)n2)ccc(N2CCC(N3CCN(C)CC3)CC2)c1F` [Compound I-45, 7-((2-((3-fluoro-2-methoxy-4-(4-(4-methylpiperazin-1-yl)piperidin-1-yl)phenyl)amino)-5-(trifluoromethyl)pyrimidin-4-yl)amino)isoindolin-1-one], the IC50 in experiment [1], in experiment [2] and in experiment [3] was 11 to 100 nM in each case.
Regarding `COc1nc(N2CCC(N3CCN(C)CC3)CC2)ccc1Nc1ncc(Cl)c(Nc2cccc3c2C(=O)NC3)n1` [Compound I-13, 7-((5-chloro-2-((2-methoxy-6-(4-(4-methylpiperazin-1-yl)piperidin-1-yl)pyridin-3-yl)amino)pyrimidin-4-yl)amino)isoindolin-1-one], the IC50 in experiment [1] lay in the range of 11 to 100 nM; in experiment [2], 0.1 to 10 nM; in experiment [3], 11 to 100 nM.
As for `COc1cc2c(cc1Nc1ncc(C(F)(F)F)c(Nc3cccc4c3C(=O)NC4)n1)CN(C)CC2` [Compound I-21, 7-((2-((6-methoxy-2-methyl-1,2,3,4-tetrahydroisoquinolin-7-yl)amino)-5-(trifluoromethyl)pyrimidin-4-yl)amino)isoindolin-1-one], the IC50 is 101 to 1000 nM in experiment [1], 11 to 100 nM in experiment [2] and 11 to 100 nM in experiment [3].
For the molecule `COc1c(Nc2ncc(Cl)c(Nc3cccc4c3C(=O)NC4)n2)ccc(N2CCN3CCCC3C2)c1F` (stereo not drawn) [Compound I-6, 7-((5-chloro-2-((3-fluoro-4-(hexahydropyrrolo[1,2-a]pyrazin-2(1H)-yl)-2-methoxyphenyl)amino)pyrimidin-4-yl)amino)isoindolin-1-one], the IC50 in experiment [1] lay in the range of 101 to 1000 nM; in experiment [2], 11 to 100 nM; in experiment [3], 11 to 100 nM.
For `COc1nc(N2CCN(C)CC2)ccc1Nc1ncc(Cl)c(Nc2cccc3c2C(=O)NC3)n1` [Compound I-14, 7-((5-chloro-2-((2-methoxy-6-(4-methylpiperazin-1-yl)pyridin-3-yl)amino)pyrimidin-4-yl)amino)isoindolin-1-one], the IC50 in experiment [1] lay within 11 to 100 nM; in experiment [2] it was 11 to 100 nM; in experiment [3] it was 0.1 to 10 nM.
Regarding `COc1c(Nc2ncc(C(F)(F)F)c(Nc3cccc4c3C(=O)NC4)n2)ccc(N2CCCN(C)CC2)c1F` [Compound I-38, 7-((2-((3-fluoro-2-methoxy-4-(4-methyl-1,4-diazepan-1-yl)phenyl)amino)-5-(trifluoromethyl)pyrimidin-4-yl)amino)isoindolin-1-one], the IC50 was in the range of 101 to 1000 nM in experiment [1], 0.1 to 10 nM in experiment [2] and 11 to 100 nM in experiment [3].
